# Measurements: publication PMC5614982, “Impact of Gastric H^+/K^+-ATPase rs2733743 on the Intragastric pH-Values of Dexlansoprazole Injection in Chinese Subjects” (Frontiers in Pharmacology, 2017)
# Experiment: Pharmacokinetics of dexlansoprazole injection after single intravenous infusion in healthy Chinese subjects
# Type: in vivo, human
# Details: for Vd / clearance / half-life: iv
# Protocol: Dexlansoprazole injection (30 mg per vial) used in the PK and PD study was manufactured by Nanjing Yoko Pharma Co., Ltd. (Nanjing, China). Subjects received an intravenous infusion of 20 or 30 mg dexlansoprazole injection in sterile saline solution (100 mL/h, 60 min). The study drug was administrated with an infusing pump (SA213, Lifepum, Beijing, China) and given through an intravenous catheter in the antecubital vein opposite to the one from which blood samples were taken.
# To determine the pharmacokinetic properties of dexlansoprazole injection in human, a series of venous blood samples (5 mL) were collected in heparinized tubes at 0 (pre-dose), 10, 20, 40, 60, and 75 min, 1.5, 2, 2.5, 3, 4, 6, 9, 12, 16, 24, and 36 h post-dose. Samples were centrifuged immediately at 4°C for 10 min at 3,500 revolutions per minute, then separated and stored at −80°C for PK analysis.
# A chiral liquid chromatography-mass spectrometry method was developed and validated for the simultaneous determination of (R)- and (S)-lansoprazole in human plasma, with the calibration curve of 500–3,000 ng/mL for both (R)- and (S)-lansoprazole (Sun et al., [2015]). […] The mass spectrometric analysis was performed using a QTrap 5500 mass spectrometer (AB Sciex, Concord, Ontario, Canada).
# The PK parameter of Cmax (maximum concentration) and Tmax (the time to Cmax) were obtained directly from the observed data. Other PK parameters including t1/2 (elimination half-life), AUC^PK (area under the plasma concentration-time curve), Vd (volume of distribution), and CL (clearance) were calculated using non-compartmental methods with Phoenix WinNonlin version 6.4 (Pharsight Inc., CA, USA).
# [1] = human, plasma, 20 mg, 20 mg iv, CYP2C19 PM (n = 6)
# [2] = human, plasma, 20 mg, 20 mg iv, CYP2C19 hetEM (n = 9)
# [3] = human, plasma, 20 mg, 20 mg iv, CYP2C19 homEM (n = 8)
# [4] = human, plasma, 20 mg, 20 mg iv, Total (n = 23)
# [5] = human, plasma, 30 mg, 30 mg iv, CYP2C19 PM (n = 7)
# [6] = human, plasma, 30 mg, 30 mg iv, CYP2C19 hetEM (n = 10)
# [7] = human, plasma, 30 mg, 30 mg iv, CYP2C19 homEM (n = 11)
# [8] = human, plasma, 30 mg, 30 mg iv, Total (n = 28)
# [9] = human, plasma, 20 mg iv, CYP2C19 PM (n = 6)
structure (smiles),measurement,setting,value
Cc1c(OCC(F)(F)F)ccnc1C[S@@+]([O-])c1nc2ccccc2[nH]1 [dexlansoprazole],dose proportionality of Cmax and AUC^PK,20 vs 30 mg iv,exhibit dose proportionality
same,differences in PK parameters among ABCB1 genotypes,"ABCB1 C3435T CC, CT, TT",no statistical significant differences
same,Vd,[1],11 L
same,clearance,[1],34.7 mL/min
same,half-life,[1],3.65 h
same,Vd,[2],8.78 ± 1.35 L
same,clearance,[2],76.7 mL/min
same,half-life,[2],1.37 ± 0.24 h
same,Vd,[3],10.4 ± 1.07 L
same,clearance,[3],113 mL/min
same,half-life,[3],1.18 ± 0.4 h
same,Vd,[4],9.62 ± 1.45 L
same,clearance,[4],90.2 mL/min
same,half-life,[4],1.41 ± 0.64 h
same,Vd,[5],9.58 ± 1.56 L
same,clearance,[5],40.2 mL/min
same,half-life,[5],3.96 ± 1.54 h
same,Vd,[6],8.2 ± 1.73 L
same,clearance,[6],61.5 mL/min
same,half-life,[6],1.56 ± 0.15 h
same,Vd,[7],10.7 ± 1.23 L
same,clearance,[7],115 mL/min
same,half-life,[7],1.14 ± 0.28 h
same,Vd,[8],9.78 ± 1.69 L
same,clearance,[8],78.2 mL/min
same,half-life,[8],2.17 ± 1.57 h
same,AUC(0-inf),[9],9.6 µg·h/mL
same,Cmax,[9],1.67 µg/mL
same,AUC,"human, plasma, 20 mg iv, CYP2C19 PM (n = 6), read-out: AUC0-tCon-t",9.49 µg·h/mL
same,Tmax,"human, plasma, 20 mg iv, CYP2C19 homEM (n = 8)",1 h
same,Tmax,"human, plasma, 30 mg iv, Total (n = 28)",1 h
same,AUC^PK for CYP2C19 PMs relative to CYP2C19 homEMs,same dose group,3- to 4 fold
same,t1/2 for CYP2C19 PMs relative to CYP2C19 homEMs,same dose group,3- to 4 fold
